Experiments:
[1] = tested on: laboratory animals; conditions: in vivo; cited from earlier work
[2] = biological target: DOGT1 (UGT73C5) (Arabidopsis thaliana, UniProt Q9ZQ94); format: cell-based
[3] = biological target: UGT73C4 (Arabidopsis thaliana, UniProt Q9ZQ97); format: cell-based
[4] = tested on: wheat ribosomes; format: biochemical
[5] = tested on: DOGT1 promoter (PDOGT1-GUS); parameters: species or system Arabidopsis thaliana; conditions: in vivo
[6] = tested on: A. thaliana wild-type Col-0; conditions: in vivo
[7] = tested on: DOGT1 mRNA expression; parameters: species or system Arabidopsis thaliana; conditions: in vivo
[8] = tested on: Saccharomyces cerevisiae strain YZGA452; format: cell-based
[9] = tested on: coleoptile elongation; conditions: in vivo; cited from earlier work

DOGT1 (UGT73C5), sequence (Q9ZQ94 whole entry, looked up): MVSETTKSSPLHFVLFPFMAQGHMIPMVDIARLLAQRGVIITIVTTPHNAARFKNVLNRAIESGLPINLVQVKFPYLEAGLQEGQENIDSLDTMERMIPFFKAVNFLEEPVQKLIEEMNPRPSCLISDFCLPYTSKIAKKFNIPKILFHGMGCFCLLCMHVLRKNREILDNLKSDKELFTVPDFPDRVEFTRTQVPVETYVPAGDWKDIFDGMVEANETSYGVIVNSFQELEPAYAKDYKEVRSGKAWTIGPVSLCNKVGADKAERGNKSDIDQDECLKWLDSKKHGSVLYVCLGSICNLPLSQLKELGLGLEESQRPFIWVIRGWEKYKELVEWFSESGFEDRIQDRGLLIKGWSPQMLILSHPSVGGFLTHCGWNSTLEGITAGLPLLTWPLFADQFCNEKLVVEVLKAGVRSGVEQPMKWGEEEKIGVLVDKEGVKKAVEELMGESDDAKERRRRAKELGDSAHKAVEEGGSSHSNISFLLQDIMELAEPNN
UGT73C4, sequence (Q9ZQ97 whole entry, looked up): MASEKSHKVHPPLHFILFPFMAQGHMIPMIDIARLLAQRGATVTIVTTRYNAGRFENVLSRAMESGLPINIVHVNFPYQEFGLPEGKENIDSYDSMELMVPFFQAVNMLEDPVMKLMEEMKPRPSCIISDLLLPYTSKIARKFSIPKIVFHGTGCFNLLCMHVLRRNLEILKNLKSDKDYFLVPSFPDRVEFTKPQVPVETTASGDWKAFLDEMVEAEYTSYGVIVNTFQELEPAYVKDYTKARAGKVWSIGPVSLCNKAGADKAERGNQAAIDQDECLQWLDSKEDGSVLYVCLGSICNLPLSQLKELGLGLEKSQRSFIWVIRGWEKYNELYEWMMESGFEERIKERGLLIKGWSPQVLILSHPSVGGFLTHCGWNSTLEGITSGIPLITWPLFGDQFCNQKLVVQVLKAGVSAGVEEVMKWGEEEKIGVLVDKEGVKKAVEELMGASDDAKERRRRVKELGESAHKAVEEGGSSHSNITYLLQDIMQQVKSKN

Compound: CC(=O)O[C@@H]1C[C@]2(C)[C@@]3(CO)[C@H](O)C(=O)C(C)=C[C@H]3O[C@H]1[C@@]21CO1 [3-ADON, 3-acetyl-deoxynivalenol]
- fold less toxic than DON to laboratory animals [1]: about 2 fold
- resistance to the toxin conferred by DOGT1 expression (detoxification) [2]: inability to confer resistance
- resistance to the toxin conferred by UGT73C4 expression (detoxification) [3]: failed to confer resistance

Compound: CC(=O)OC[C@]12[C@H](O)C(=O)C(C)=C[C@H]1O[C@@H]1[C@H](O)C[C@@]2(C)[C@]12CO2 [15-ADON, 15-acetyl-deoxynivalenol]
- resistance to the toxin conferred by DOGT1 expression (detoxification) [2]: protection
- resistance to the toxin conferred by UGT73C4 expression (detoxification) [3]: had the ability to detoxify

Compound: CC1=C[C@H]2O[C@@H]3[C@H](O)C[C@](C)([C@@]2(CO)[C@H](O)C1=O)[C@]31CO1 [DON, deoxynivalenol]
- luminescence remaining (luciferase activity of control) [4]: 3.1%
- reporter enzyme (luciferase) activity compared to the control (100%) [4]: 36.8%
- induction of PDOGT1-GUS reporter expression [5]: induce
- resistance to the toxin conferred by DOGT1 expression (detoxification) [2]: protects against
- main phytotoxic effect on wild-type plants [6]: slow germination
- induction of DOGT1 transcript (RT-PCR) [7]: DON inducible expression
- resistance to the toxin conferred by UGT73C4 expression (detoxification) [3]: had the ability to detoxify
- concentration sufficient to completely inhibit growth of yeast [8]: 180 ppm

Compound: CC1=CC2OC3C(O[C@@H]4O[C@H](CO)[C@@H](O)[C@H](O)[C@H]4O)CC(C)(C34CO4)C2(CO)C(O)C1=O (stereo partly drawn) [DON-3-glucoside, 3-β-D-Glucopyranosyl-4-deoxynivalenol]
- inhibition of luciferase activity ([4]; 20 µM): 8%

Compound: CC(=O)OC[C@]12C[C@H](OC(=O)CC(C)C)C(C)=C[C@H]1O[C@@H]1[C@H](O)[C@@H](O)[C@@]2(C)[C@]12CO2 [HT-2-toxin, HT-2 toxin]
- resistance to the toxin conferred by UGT73C4 expression (detoxification) [3]: failed to confer resistance

Compound: CC/C=C\C[C@H]1C(=O)CC[C@@H]1CC(=O)O [JA, jasmonic acid]
- induction of PDOGT1-GUS reporter expression [5]: No induction
- induction of DOGT1 transcript (RT-PCR) [7]: weak induction

Compound: CC1=C[C@H]2O[C@@H]3[C@H](O)[C@@H](O)[C@](C)([C@@]2(CO)[C@H](O)C1=O)[C@]31CO1 [NIV, nivalenol]
- toxicity compared with DON in animal systems [1]: higher toxicity
- resistance to the toxin conferred by DOGT1 expression (detoxification) [2]: lack of activity
- resistance to the toxin conferred by UGT73C4 expression (detoxification) [3]: failed to confer resistance

Compound: O=C(O)c1ccccc1O [SA, salicylic acid]
- induction of PDOGT1-GUS reporter expression [5]: No induction
- induction of DOGT1 transcript (RT-PCR) [7]: rather weakly

Compound: C/C=C\C(=O)O[C@@H]1C[C@H]2O[C@@H]3C=C(C)C(=O)C[C@]3(C)[C@]1(C)[C@]21CO1 [TTC, trichothecin]
- resistance to the toxin conferred by UGT73C4 expression (detoxification) [3]: failed to confer resistance

Compound: Acetyl-DON [ADON]
- overall toxicity compared with the non-acetylated form (DON) [9]: equivalent

Compound: diacetoxyscirpenol [DAS]
- resistance to the toxin conferred by UGT73C4 expression (detoxification) [3]: failed to confer resistance

Compound: veruccarin A [VA]
- resistance to the toxin conferred by UGT73C4 expression (detoxification) [3]: failed to confer resistance

From US20060183202A1 (priority 2003, published 2006)
